In patent EP0369733A2, “Fluorescent indicator dyes for alkali metal cations, their preparation and use” (THE REGENTS OF THE UNIVERSITY OF CALIFORNIA, priority 1988, dated 1990):
Like-named read-outs stand apart in the source and are kept apart here.

How the values were obtained:
[1] = quinine bisulfate in 1 N H₂SO₄; assumed value; cited from earlier work
[2] = Cation titration followed by absorbance or fluorescence excitation spectra: Na⁺ binding; conditions: 0.1 M tetramethylammonium chloride, 1-5 mM tris(hydroxymethyl)aminomethane, pH high enough for protonation to be insignificant, 22°; read-out: Dissociation constants (Kd) in mM for Na⁺
Procedure: (§1) • Footnote a: For molecular structures, see Fig. 1. • Footnote b: Except where otherwise noted, these dissociation constants were measured with the chelator dissolved in 0.1 M tetramethylammonium chloride, at a pH held high enough with 1-5 mM tris(hydroxymethyl)aminomethane for protonation to be insignificant. The absorbance spectrum, or the fluorescence excitation spectrum for those compounds (2GG, 2NN, 2OO, 2PP, 3NN) with acronyms was measured as a function of the concentration of cation added as a solid or concentrated aqueous solution of the halide salt. No correction has been made for the changing ionic strength of the solution, which started from 0.1 M and increased, but the absorbances and fluorescence amplitudes were applied for dilution of the dye and any slight quenching due to high concentrations of Cl⁻. • Footnote c: These protonation constants were determined in 0.1 M tetramethylammonium chloride, 10 mM tris(hydroxymethyl)aminomethane, titrated with 5 M H₃PO₄ to successively lower pH values measured with a Radiometer PHM84 meter. […] The first number is the wavelength in nanometers, followed in parentheses by 10⁻³ x the corresponding extinction coefficient, M⁻¹cm⁻¹. […] Emission maxima are not corrected for the spectral sensitivity of the emission detection. Quantum efficiencies were measured (13) by comparing the integral of the corrected emission spectrum with the corresponding integral for a solution of quinine bisulfate in 1 N H₂SO₄ of matched absorbance at the excitation wavelength.
(§2) Affinities for other cations were usually measured by titrating aqueous solutions of the indicator with metal chlorides added either as solid or from concentrated stock solutions, taking care to minimize dilution and correct for it. A convenient way to mass-produce premeasured micromole to millimole aliquots of solid NaCl or KCl was to pipet saline solutions into polypropylene micro test tubes and evaporate the water in an oven. The standard ionic background was again 100 mM tetramethylammonium chloride, usually with a few mM of tris(hydroxymethyl)-aminomethane base to hold the pH high enough (pH 8-9) to insure that protonation was negligible. This convenient titration procedure had the slight disadvantage that the ionic strength was not constant, especially when large quantities of a salt had to be added due to weak affinities. […] When constant ionic strength was desired, the chelator was made up at identical concentrations in matched solutions of NaCl, KCl, or tetramethylammonium chloride, then these stocks were mixed in the desired proportions. All measurements were made at room temperature (22°, ±2° C).

[3] = Fluorescence excitation/emission spectra and quantum efficiency; format: physicochemical; conditions: for Emission maxima -Na⁺: 100 mM tetramethylammonium chloride, not corrected for detector sensitivity; for Emission maxima -Na⁺ / Quantum efficiency -Na⁺: no Na⁺; for Quantum efficiency -Na⁺: relative to quinine bisulfate in 1 N H₂SO₄ (0.55); for Emission maxima +Na⁺, footnote l / Quantum efficiency +Na⁺, footnote l: saturating K⁺ rather than Na⁺
Procedure: as §1
(§3) UV absorbance spectra were recorded initially on a Cary 210 and later on a Perkin-Elmer Lambda Array 3840 spectrophotometer. Fluorescence excitation and emission spectra and quantum efficiencies were measured on a Spex Fluorolog 111 as described previously (13).

[4] = Cation titration followed by absorbance or fluorescence excitation spectra: Ca²⁺ binding; conditions: 0.1 M tetramethylammonium chloride, 1-5 mM tris(hydroxymethyl)aminomethane, high pH; read-out: Dissociation constants (Kd) in mM for Ca²⁺
Procedure: as §1, §2

[5] = Cation titration followed by absorbance or fluorescence excitation spectra: Mg²⁺ binding; conditions: 0.1 M tetramethylammonium chloride, 1-5 mM tris(hydroxymethyl)aminomethane, high pH; read-out: Dissociation constants (Kd) in mM for Mg²⁺
Procedure: as §1
as §2, with “proportions.” for “proportions. All measurements were made at room temperature (22°, ±2° C).”

[6] = UV absorbance spectra without and with saturating cation; format: physicochemical; conditions: for Absorbance maxima -Na⁺ (wavelength): 100 mM tetramethylammonium chloride plus 1-5 mM Tris; for Absorbance maxima -Na⁺ (wavelength) / Absorbance maxima -Na⁺ (extinction coefficient): no Na⁺; for Absorbance maxima -Na⁺ (extinction coefficient) / Absorbance maxima +Na⁺, footnote l (extinction coefficient): number is 10⁻³ x the extinction coefficient; for Absorbance maxima -Na⁺ (extinction coefficient): lower limits for most compounds; for Absorbance maxima +Na⁺, footnote l (extinction coefficient) / Absorbance maxima +Na⁺, footnote l (wavelength): saturating K⁺ rather than Na⁺
Procedure: as §1, §3

[7] = Cation titration followed by absorbance or fluorescence excitation spectra: K⁺ binding; conditions: 0.1 M tetramethylammonium chloride, 1-5 mM tris(hydroxymethyl)aminomethane, high pH; read-out: Dissociation constants (Kd) in mM for K⁺
Procedure: as §1
Affinities for other cations were usually measured by titrating aqueous solutions of the indicator with metal chlorides added either as solid or from concentrated stock solutions, taking care to minimize dilution and correct for it. […] This convenient titration procedure had the slight disadvantage that the ionic strength was not constant, especially when large quantities of a salt had to be added due to weak affinities. […]

[8] = Solubility in water for spectrophotometry; format: physicochemical

Procedure for physchem: The lowest curve ([Na⁺] = 0) was obtained with 5 µM SBFI in 130 mM KCl, 10 mM MOPS, KOH to pH 7.05, approximately 135 mM total K⁺. The highest curve ([Na⁺] = 135 mM) was analogously recorded from 5 µM SBFI in 130 mM NaCl, 10 mM MOPS, NaOH to pH 7.05. The intermediate curves from 1.35 to 94.5 mM Na⁺ were obtained by successively 1/100, 1/99, 3/98, 1/19, 1/9, 1/4, and 1/2 of the K⁺-rich SBFI solution by the SBFI in Na medium. The excitation bandwidth was 1.85 nm; emission was collected at 500 nm with 9.3 nm bandwidth. […] The lowest curve was obtained in 130 mM NaCl, 10 mM MOPS, NaOH to pH 7.05. The highest curve was in 130 mM KCl, 10 mM MOPS, KOH to pH 7.05. The intermediate curves with 13.5 to 112.5 mM K⁺ were obtained by iteratively replacing 1/10, 1/9, 1/6, 1/4, 1/3, and 1/2 of the low K⁺ medium by the 135 mM KCl solution of PBFP.
Proton dissociation constants of the chelators were measured by spectrophotometry or spectrofluorometry of buffered solutions, containing either 100 mM tetramethylammonium chloride as inert supporting electrolyte, or 121.5 mM K⁺, 13.5 mM Na⁺, and 1 mM Mg²⁺ to simulate the cation environment of vertebrate cytoplasm (14). […] When the chelators contained two protonatable nitrogens, the curve of absorbance or fluorescence versus pH was analyzed by computerized least-squares fitting to the equations for two arbitrary proton equilibria (15), with the added assumption that the two protonations each caused the same change in extinction coefficient or fluorescence. This assumption was based on the presence of two identical chromophores in each chelator and produced good fits to the experimental data.

Row | Compound | quantum efficiency of reference standard [1] | Kd [2] [mM] | Emission maxima -Na⁺ [3] [nanometers] | Quantum efficiency -Na⁺ [3] | Emission maxima +Na⁺, footnote l [3] | Quantum efficiency +Na⁺, footnote l [3] | Kd [4] [mM] | Kd [5] [mM] | Absorbance maxima -Na⁺ (wavelength) [6] [nanometers] | Absorbance maxima -Na⁺ (extinction coefficient) [6] [M⁻¹ cm⁻¹] | Absorbance maxima +Na⁺, footnote l (extinction coefficient) [6] [M⁻¹ cm⁻¹] | Absorbance maxima +Na⁺, footnote l (wavelength) [6] [nanometers] | pKa (physchem) | Kd [7] [mM] | pKa (physchem; 126 mm kcl, 14 mm nacl) | solubility in water [8]
1 | C=C[C@H]1C[N@@]2CC[C@H]1C[C@H]2[C@H](O)c1ccnc2ccc(OC)cc12 [Quinine, quinine bisulfate] | 0.55 |  |  |  |  |  |  |  |  |  |  |  |  |  |  | 
2 | COc1cc2cc(-c3ccc(C(=O)O)cc3C(=O)O)oc2cc1N1CCOCCOCCN(c2cc3oc(-c4ccc(C(=O)O)cc4C(=O)O)cc3cc2OC)CCOCCOCC1 [Compound 3PP] |  | 21 | 545 | .024 | 504^l nanometers | .072^l | 16 | 40 | 350 | 42000 | 42000 | 344 | 5.78 | 8 |  | 
3 | COc1cc2cc(-c3ccc(C(=O)O)c(C(=O)O)c3)oc2cc1N1CCOCCOCCN(c2cc3oc(-c4ccc(C(=O)O)c(C(=O)O)c4)cc3cc2OC)CCOCCOCC1 [Compound 3NN, N,N-bis(2-(3,4-dicarboxyphenyl)-5-methoxybenzofuran-6-yl)-diaza[18]-crown-5] |  |  | 518 | .0075 | 494^l nanometers | .12^l |  |  | 344 | 23000 | 25000 | 337 |  | 83 | 6.68 | 
4 | N,N-bis-(1-acetamidoacridin-4-yl)-diaza[15]-crown-5 [Compound 2HH] |  |  |  |  |  |  |  |  |  |  |  |  |  |  |  | insufficiently soluble in water for spectrophotometry
